Patent publication US20170355760A1, “METHODS FOR MODULATING THE GLYCOSYLATION PROFILE OF RECOMBINANT PROTEINS USING SUGARS” (AbbVie Inc., priority 2014, published 2017)

Tests used:
Assay type in all cases: cell-based, Chinese Hamster
[1] = test system: Cell Line 1 expressing a humanized monoclonal antibody (Antibody 1); assay: N-glycan oligosaccharide profiling of Protein A purified antibody (reduced heavy chain, RP-HPLC/Q-TOF MS); settings: for redirecting the N-glycan glycoform profile: 250 mL shaker flask cultures, defined supplementation range
Experimental: (§1) A recombinant Chinese Hamster Ovary (CHO) cell line (Cell Line 1) expressing a humanized monoclonal antibody (Antibody 1) was evaluated in shaker flask cultures. The cell line was of CHO DUX-B11 origin based on a dhfr (dihydrofolate reductase) expression system, and cultured in a chemically defined basal and chemically-defined feed media. Each of the respective cultures were supplemented with selected monosaccharides and oligosaccharides to evaluate for their potential impact on the resulting N-glycan oligosaccharide profile. All sugars were purchased from Sigma-Aldrich (St. Louis, Mo.), and dissolved at the concentrations referenced below in the cell culture media. Unless specified otherwise, all sugars evaluated were in their D-form. In preparation of the cultures, the cell lines were expanded through seed train inoculums to generate enough cells for inoculation.
Purified antibodies subjected to additional analytical characterization were purified using MabSelect™ Protein A (GE Healthcare, Piscataway, N.J.) using a low pH, step elution gradient, followed by neutralization, and subsequently buffer exchanged when necessary using Amicon centrifugal filters (EMD Millipore, Billerica, Mass.) according to the manufacturer's recommended procedure.
The heavy chain of adalimumab was analyzed using an HPLC (Agilent 1260, Santa Clara, Calif.) with a reversed phase column (Vydac, C4, 1×150 mm, 5μ particle size) coupled to a Q-TOF mass spectrometer (Agilent, 6510). Protein A purified samples from cell culture harvests were first reduced using DTT at 37° C. for 30 minutes. The samples were then loaded using 95% mobile phase A (0.08% formic acid and 0.02% TFA in water) and 5% mobile phase B (0.08% formic acid and 0.02% TFA in acetonitrile), and then eluted using a gradient of increasing levels of mobile phase B. The flow rate was 50 μL/min and the column temperature was set to 60° C. The mass spectrometer was operated in positive ion mode with an ion spray voltage of 4500 volts and a source temperature of 350° C. Resolved peaks centered on the known masses of different N-glycans was subsequently used to identify the different types of N-glycans, and the relative peak heights were used to quantitate their respective levels.

CHO cell line 1 [2] = assay: Viable cell density and cell viability of shaker flask cultures (trypan blue exclusion, Cedex); settings: for cell viability profile: 1-50 mM supplementation; for peak VCD compared to control: 50 mM supplementation; for cell growth compared to the unsupplemented control: sugar 1, 10, 25, 50 mM in basal media, shaker flask
Experimental: as §1
Viable cell density (VCD) and cell viability values were measured through trypan blue exclusion via Cedex automated cell counters (Roche Applied Science, Indianapolis, Ind.). Initial viable cell density and viability in the cultures were targeted towards the same value. Immediately after inoculation, only a handful of each of the shake flasks were sampled for VCD and viability, and the results were averaged. All Day 0 values amongst these flasks were thus reported to be at this average. The cultures were harvested on Process Days 9-10, or when cell viability dropped below 50%, whichever occurred first.

CHO cell line 1 [3] = assay: Harvest antibody titer (Poros A Protein A affinity HPLC); settings: for harvest titer compared to unsupplemented control: 1-50 mM supplementation
Experimental: as §1
Antibody titers were measured from crude cell culture harvests on a Poros A™ (Life Technologies, Carlsbad, Calif.) affinity column using an Agilent (Santa Clara, Calif.) 1200 Series HPLC, or equivalent, operating with a low pH, step elution gradient with detection at 280 nm. Absolute concentrations were assigned with respect to reference standard calibration curves.

[4] = 1-50 mM vs unsupplemented control
[5] = each of the concentrations evaluated (1-50 mM)
[6] = across all supplemented concentrations (1-50 mM)
[7] = the higher concentrations evaluated

Row | SMILES | G0F N-glycan levels [1, 4] | N-glycan oligosaccharide profile change upon supplementation [1, 4] | redirecting the N-glycan glycoform profile [1] | cell viability profile (CHO cell line 1 [2]) | harvest titer compared to unsupplemented control (CHO cell line 1 [3]) | peak VCD compared to control (CHO cell line 1 [2]) | cell growth compared to the unsupplemented control (CHO cell line 1 [2]) | also measured
1 | O=C(CO)[C@H](O)[C@H](O)[C@H](O)CO [psicose] | dropped in an almost equal fashion | increase Man5, G0F-GlcNAc, and G1F species in a psicose concentration-dependent manner | toward the high mannose type | no significant changes | slightly lower compared to the control |  |  | peak VCD compared to the unsupplemented control (CHO cell line 1 [2]; [5]): lower peak VCD; harvest titer ratio (CHO cell line 1 [3]; [6]): > 0.88
2 | O=C(CO)[C@@H](O[C@H]1O[C@H](CO)[C@@H](O)[C@H](O)[C@H]1O)[C@H](O)[C@H](O)CO [turanose] |  | increase of G1F and G2F species, which came at the expense of the G0F and G0F-GlcNAc species | toward the complex, galactosylated type | did not show a very significant adverse impact | small drop in harvest titer | small nominal drop | did not show a very significant adverse impact towards cell growth | increase in G1F ([1]; 1 mM): 0.2%; increase in G2F ([1]; 10 mM): 3%; increase in G2F ([1]; 25 mM): 7%; increase in G1F ([1]; 50 mM): 14%; drop in harvest titer (CHO cell line 1 [3]; 50 mM (largest drop)): 10%
3 | OC[C@H]1O[C@@H](O[C@H]2[C@H](O)[C@@H](O)C(O)O[C@@H]2CO)[C@H](O)[C@@H](O)[C@H]1O (stereo partly drawn) [lactose] | almost equal drop |  | toward the complex, galactosylated type | no adverse impact | small decrease in harvest titers | noticeably lower than the control | no adverse impact towards cell growth performance | increase in G1F species ([1]; at most, across 1-50 mM): ≤ 4%; increase in G2F species ([1]; at most, across 1-50 mM): ≤ 2%; relative harvest titer (CHO cell line 1 [3]; 1 mM (lowest across tested concentrations)): 0.87
4 | OC[C@H]1O[C@H](OC[C@H]2OC(O)(CO)[C@@H](O)[C@@H]2O)[C@H](O)[C@@H](O)[C@@H]1O (stereo partly drawn) [palatinose] | significant decrease | increase Man5, G0F-GlcNAc, G1F, and G2F N-glycans in a palatinose concentration-dependent manner | toward the high mannose type | reasonably consistent with each other | slightly less antibody product |  | only the lowest concentration (1 mM) supported a cell growth profile that closely approximated that of the unsupplemented control | peak VCD compared to the unsupplemented control (CHO cell line 1 [2]; [7]): lower peak viable cell densities
5 | OC[C@H]1O[C@@H](O[C@@H]2[C@@H](CO)OC(O)(CO)[C@H]2O)[C@H](O)[C@@H](O)[C@H]1O (mixture of isomers) [lactulose] | approximately equal drop | lactulose dependent increase in Man5, G0F-GlcNAc, and G1F N-glycans | toward the high mannose type | no adverse impact | only nominally impacted | drop in VCD | only the 50 mM level of this sugar had a slightly adverse impact to cell growth performance | harvest titer ratio (CHO cell line 1 [3]; 50 mM): 0.89
6 | OC[C@H]1O[C@@](CO)(O[C@H]2O[C@H](CO)[C@@H](O)[C@H](O)[C@H]2O)[C@@H](O[C@H]2O[C@H](CO)[C@@H](O)[C@H](O)[C@H]2O)[C@@H]1O [melezitose] |  | largest % impact on the protein glycosylation profile | toward the complex, galactosylated type | no adverse impact | nominally reduce the harvest titer | drop in peak VCD | only the 50 mM condition had an adverse impact on cell growth | increase in G1F ([1]; 1 mM): 1%; increase in G1F ([1]; 10 mM): 9%; increase in G1F ([1]; 25 mM): 20%; increase in G1F ([1]; 50 mM): 28%; G0 type glycans [1, 4]: almost equal drop in relative value; G2 N-glycan change [1, 4]: mirrored these results, albeit at a much lower overall percent change; Man5 levels ([1]; all tested concentrations): Reduced levels; harvest titer ratio (CHO cell line 1 [3]; 10 mM (lowest result observed)): 0.82
7 | OC[C@H]1O[C@H](OC[C@H]2O[C@H](O[C@]3(CO)O[C@H](CO)[C@@H](O)[C@@H]3O)[C@H](O)[C@@H](O)[C@@H]2O)[C@H](O)[C@@H](O)[C@H]1O [raffinose] |  |  | toward the high mannose type | closely approximated each other | closely approximated each other |  | comparable to the unsupplemented control up to a raffinose concentration of 10 mM | increase in Man5, G0F-GlcNAc, and G1F compared to the unsupplemented control ([1]; concentration-dependent, 1-50 mM): > 2%; peak VCD compared to the unsupplemented control (CHO cell line 1 [2]; [7]): lower than that of the unsupplemented control
8 | OC[C@H]1O[C@H](O[C@H]2O[C@H](CO)[C@@H](O)[C@H](O)[C@H]2O)[C@H](O)[C@@H](O)[C@@H]1O [trehalose] | significant decrease | more Man5 and G0F-GlcNAc levels | toward the high mannose type | not affected | slightly lower values |  |  | peak VCD compared to the unsupplemented control (CHO cell line 1 [2]; [5]): lower peak VCD; harvest titer ratio (CHO cell line 1 [3]; [6]): > 0.85
